For one test, the system named is MDA-MB-231 cells. Nature of the test: Mitochondria morphological analysis by confocal microscopy (MitoTracker Red). Type of test: cell-based, Human. Particulars: MDA-MB-231, 48 h, cDDP 10 µM or Erastin 10 µM, vs untreated cells. Here is the method: Morphological changes in the mitochondria of MDA-MB-231 cells after treatments in vitro were determined using the MitoTracker Red CMXRos selective probe (Ex\Em 579/599 nm). Briefly, 1.5 × 10^4 cells were seeded in a four-well µ-Slide and incubated for 48 h. Then, cells were treated with the IC50 concentration of PalmiPyRu, cDDP (10 µM) or Erastin (10 µM), respectively, for a further 48 h. After incubations, cells were treated with FBS-free medium containing 100 nM MitoTracker at 37 °C for 20 min. To label the nuclei, a DAPI (Ex/Em 358/461 nm) solution (1:1000) was used at room temperature for 10 min of incubation. Fluorescence images were captured using a confocal microscope (Zeiss LSM 900 Airyscan 2) with a 63× magnification (oil-immersion objective).

The next test concerns HHFK. Nature of the test: Cell survival index, biocompatibility on healthy cells. The conditions noted are these: 48 h of incubation, mean ± SEM (n = 15). It counts as cell-based. The method, then:
(§1) The antiproliferative activity was evaluated by estimating a “cell survival index” through targeted bioscreens, which joins cell viability assessment (by the MTT functional assay) with automated cell count (quantitative assay by automatic cell counter). Specifically, the “cell survival index” is calculated as the arithmetic average between the percentage values derived from the MTT assay and automated cell counting. For in vitro treatments, TNBC cell lines (MDA-MB-231, Hs 578T and BT-549) were seeded into 96-well culture plates at a density of 10^4 cells/well and allowed to grow for 24 h. The culture medium was then replaced with fresh medium, and the cells were treated with PalmiPyRu at concentrations ranging from 5 to 150 μM for different times, depending on the type of experiment. Cisplatin (cDDP) was used as a reference drug (positive control).
(§2) The same experimental setup in vitro was applied to assess the biocompatibility of PalmiPyRu on healthy control cell lines (HDFas, HHFKs, HaCaTs and […]). Cell viability was measured using the MTT assay (Sigma, Milan, Italy), which evaluates mitochondrial redox capacity to convert dissolved MTT into insoluble purple formazan. Briefly, after treatments, the medium was removed, and cells were incubated with 20 μL/well of MTT solution (5 mg/mL) for 1 h at 37 °C in a humidified 5% CO2 incubator. […] Finally, absorbance was measured at 550 nm using a microplate reader (ThermoFisher, Waltham, MA, USA). Total cell counting was determined using the TC20 automated cell counter (Bio-Rad, Milan, Italy), which provides accurate and reproducible total cell counts and a live/dead ratio in a single step using a specific dye exclusion assay (Trypan Blue). […] The mixture was loaded into disposable slide chamber and analyzed. The instrument provided a total cell count (cells/mL), live cell count and percent viability, automatically adjusting for dilution if Trypan Blue was detected. […]
(§3) All subsequent in vitro experiments were performed using PalmiPyRu IC50 concentrations, calculated as previously described.

The subject of another test is HDFa. Described as above. Type of test: cell-based. The conditions noted are these: 48 h of incubation, mean ± SEM (n = 15). The method, then: as §1, §2, §3
In another test the test system is MCF-10A. The test is described as above. It counts as cell-based. Particulars: MCF-10A healthy cells, 48 h of incubation, mean ± SEM (n = 15). Here is the method:
as §1, §2, §3

The next test concerns MDA-MB-231. Kind of test: Cell survival index (MTT assay plus automated cell count), IC50. Type of test: cell-based, Human. The conditions noted are these: MDA-MB-231 TNBC cells, 48 h of incubation, mean ± SEM (n = 15). Here is the method: as §1, §2, §3
The test system of the next test is BT-549. Described as above. Type of test: cell-based, Human. The conditions noted are these: BT-549 TNBC cells, 48 h of incubation, mean ± SEM (n = 15). Here is the method: as §1, §2, §3
Another test has as its system Hs578T. Described as above. It counts as cell-based, Human. The conditions noted are these: Hs578T TNBC cells, 48 h of incubation, mean ± SEM (n = 15). Here is the method:
as §1, §2, §3

A further test relates to HaCaT. Nature of the test: Cell survival index, biocompatibility on healthy cells. It counts as cell-based, Human. The conditions noted are these: 48 h of incubation, mean ± SEM (n = 15). Here is the method: The antiproliferative activity was evaluated by estimating a “cell survival index” through targeted bioscreens, which joins cell viability assessment (by the MTT functional assay) with automated cell count (quantitative assay by automatic cell counter). Specifically, the “cell survival index” is calculated as the arithmetic average between the percentage values derived from the MTT assay and automated cell counting. For in vitro treatments, TNBC cell lines (MDA-MB-231, Hs 578T and BT-549) were seeded into 96-well culture plates at a density of 10^4 cells/well and allowed to grow for 24 h. […]
as §2, with “formazan.” for “formazan. Briefly, after treatments, the medium was removed, and cells were incubated with 20 μL/well of MTT solution (5 mg/mL) for 1 h at 37 °C in a humidified 5% CO2 incubator.”, “analyzed.” for “analyzed. The instrument provided a total cell count (cells/mL), live cell count and percent viability, automatically adjusting for dilution if Trypan Blue was detected.”

We go through two compounds from paper PMC12300231, “Ferroptosis Among the Antiproliferative Pathways Activated by a Lipophilic Ruthenium(III) Complex as a Candidate Drug for Triple-Negative Breast Cancer” (Pharmaceutics, 2025).

As to `CCOc1ccccc1-n1c(C(C)N2CCN(C(=O)COc3ccc(Cl)cc3)CC2)nc2ccccc2c1=O` (stereo not drawn) [Erastin], the “Mitochondrial red fluorescent signal (MitoTracker)” value in the test on MDA-MB-231 cells is given as “lowered the mitochondrial fluorescent signal”.
As for `[NH2][Pt]([NH2])([Cl])[Cl]` [cDDP, cisplatin], the IC50 with HHFK turned out to be 93 ± 3 µM; in the test on HDFa it was 72 ± 4 µM; with MCF-10A, 88 ± 3 µM; in the test on MDA-MB-231, 11 ± 3 µM; with BT-549 it was 15 ± 2 µM; in the test with Hs578T, 20 ± 4 µM. Further, the IC50 with HaCaT stood at 50 ± 3 µM. The “Mitochondrial red fluorescent signal (MitoTracker)” value in the test with MDA-MB-231 cells is given as “significantly reduced”.
